Measurements reported in article PMC6946680, “Modulation of brain cation-Cl^− cotransport via the SPAK kinase inhibitor ZT-1a” (Nature Communications, 2020).

Test system: mouse primary cortical neurons
Experiment: Cell volume measurement (calcein-AM) under hyperosmotic stress, primary cortical neurons

Cc1cc(C(C#N)c2ccc(Cl)cc2)c(Cl)cc1NC(=O)c1cc(Cl)ccc1O (stereo not drawn) [ZT-1a, 5-chloro-N-(5-chloro-4-((4-chlorophenyl)(cyano)methyl)-2-methylphenyl)-2-hydroxybenzamide]
Cell water (relative change) (Fig 5b trace, Time 21.0048): 0.3598 relative change | Cell water (relative change) (Fig 5b trace, Time 22.0048): 0.3067 relative change | Cell water (relative change) (Fig 5b trace, Time 23.005): 0.3082 relative change | Cell water (relative change) (Fig 5b trace, Time 24.0048): 0.3082 relative change | Cell water (relative change) (Fig 5b trace, Time 25.005): 0.2995 relative change | Cell water (relative change) (Fig 5b trace, Time 26.0053): 0.543 relative change | Cell water (relative change) (Fig 5b trace, Time 27.005): 0.6295 relative change | Cell water (relative change) (Fig 5b trace, Time 28.005): 0.7317 relative change | Cell water (relative change) (Fig 5b trace, Time 29.0051): 0.8403 relative change | Cell water (relative change) (Fig 5b trace, Time 30.005): 0.9491 relative change | Cell water (relative change) (Fig 5b trace, Time 31.005): 1.001 relative change | Cell water (relative change) (Fig 5b trace, Time 32.005): 1.095 relative change | Cell water (relative change) (Fig 5b trace, Time 33.0052): 1.18 relative change | Cell water (relative change) (Fig 5b trace, Time 34.0052): 1.2174 relative change | Cell water (relative change) (Fig 5b trace, Time 35.0052): 1.246 relative change | Cell water (relative change) (Time 1.0036): 0.9411 | Cell water (relative change) (Time 2.0038): 0.9678 | Cell water (relative change) (Time 3.0038): 0.9873 | Cell water (relative change) (Time 4.0037): 1.0365 | Cell water (relative change) (Time 5.0037): 1.0673 | Cell water (relative change) (Time 6.0037): 0.3755 | Cell water (relative change) (Time 7.0039): 0.3590 | Cell water (relative change) (Time 8.0040): 0.3612 | Cell water (relative change) (Time 9.0042): 0.3419 | Cell water (relative change) (Time 10.0039): 0.3164 | Cell water (relative change) (Time 11.0039): 0.3660 | Cell water (relative change) (Time 12.0039): 0.3218 | Cell water (relative change) (Time 13.0041): 0.3220 | Cell water (relative change) (Time 14.0041): 0.3646 | Cell water (relative change) (Time 15.0040): 0.4243 | Cell water (relative change) (Time 16.0040): 0.3424 | Cell water (relative change) (Time 17.0040): 0.4003 | Cell water (relative change) (Time 18.0045): 0.3516 | Cell water (relative change) (Time 19.0042): 0.3431 | Cell water (relative change) (Time 20.0042): 0.3283 | Cell water (relative change) (Time 21.0042): 0.3207 | Cell water (relative change) (Time 22.0041): 0.3314 | Cell water (relative change) (Time 23.0044): 0.2994 | Cell water (relative change) (Time 24.0044): 0.3371 | Cell water (relative change) (Time 25.0043): 0.3486 | Cell water (relative change) (Time 26.0043): 0.4588 | Cell water (relative change) (Time 27.0043): 0.5973 | Cell water (relative change) (Time 28.0045): 0.7262 | Cell water (relative change) (Time 29.0044): 0.8045 | Cell water (relative change) (Time 30.0044): 0.9325 | Cell water (relative change) (Time 31.0046): 1.0105 | Cell water (relative change) (Time 32.0046): 1.1112 | Cell water (relative change) (Time 33.0046): 1.1274 | Cell water (relative change) (Time 34.0045): 1.2089 | Cell water (relative change) (Time 35.0045): 1.2137 | regulatory volume increase (RVI) response of primary cortical neurons (hyperosmotic stress 370 mOsm, ZT-1a 3 μM, BMT 10 μM): no RVI response | cell shrinkage of primary cortical neurons (hypertonic 370 mOsm/kg H2O, earlier manuscript version quoted in peer-review file): 87% | initial rate of cell shrinkage (hypertonic stress, earlier manuscript version quoted in peer-review file): 29 ± 9 % vol/min | neurons exhibiting RVI / cells analysed (hypertonicity-mediated osmotic shrinkage, three cultures): 0/49
